Experimental findings from US12336981B2, “Compounds and compositions for the inhibition of NAMPT” (Valo Health, Inc., priority 2010, dated 2025) are described below.

Each structure is given as a SMILES string. Where two headings read alike, the source gives them in different places.

What is called IC50 is the concentration that inhibits the measured activity by half.

For one assay, the target named is T1, NAMPT (Homo sapiens, UniProt P43490).
T1 construct: His tag; host or cells: E. coli
Description: Biochemical inhibition assay: NAMPT enzymatic reaction, NMN quantified by mass spectrometry. The settings on record: read-out: Biochem IC50. In outline: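 Inhibition of E. coli-expressed His-tagged human NAMPT, measured as NMN formation by mass spectrometry after a 30 min room-temperature reaction containing 1 μM NAM, 100 μM PRPP and 2.5 mM ATP.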

For another assay, the system named is A2780 cells. Description: In-vitro cell proliferation assay (SRB), A2780 cells. Format: cell-based. The settings on record: Homo sapiens, A2780, 72 h, A2780 cells, 72 hours, read-out: A2780 IC50. In outline:
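Proliferation is assessed by sulforhodamine B staining following a 72-hour incubation with compound dilutions containing 0.1% DMSO.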

T1 sequence (P43490 whole entry): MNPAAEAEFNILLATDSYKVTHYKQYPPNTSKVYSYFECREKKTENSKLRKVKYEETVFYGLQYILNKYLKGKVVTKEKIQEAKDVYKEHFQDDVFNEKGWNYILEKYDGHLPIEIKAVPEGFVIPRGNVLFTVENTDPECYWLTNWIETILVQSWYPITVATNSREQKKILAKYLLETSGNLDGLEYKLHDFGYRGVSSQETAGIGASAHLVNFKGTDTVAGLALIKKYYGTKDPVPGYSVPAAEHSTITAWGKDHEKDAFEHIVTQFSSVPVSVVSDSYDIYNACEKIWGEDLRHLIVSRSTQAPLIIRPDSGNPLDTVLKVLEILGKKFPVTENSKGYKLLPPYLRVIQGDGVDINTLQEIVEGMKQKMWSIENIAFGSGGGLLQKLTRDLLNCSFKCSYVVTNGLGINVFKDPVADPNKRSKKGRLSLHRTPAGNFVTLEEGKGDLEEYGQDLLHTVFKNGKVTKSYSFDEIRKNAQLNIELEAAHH

For the compound `O=C(NCc1ccc(S(=O)(=O)c2cccc3ccccc23)cc1)c1cnc2nccn2c1` [N-{[4-(naphthalene-1-sulfonyl)phenyl]methyl}imidazo[1,2-a]pyrimidine-6-carboxamide], the IC50 on NAMPT (NAMPT enzymatic assay) is 2.9 nM; with A2780 cells (SRB), 3.6 nM.
With `O=C(NCc1ccc(S(=O)(=O)c2cccc3ccccc23)cc1)c1cc2ccncc2s1` [N-{[4-(naphthalene-1-sulfonyl)phenyl]methyl}thieno[2,3-c]pyridine-2-carboxamide], the IC50 at NAMPT (NAMPT enzymatic reaction) was found to be 2 nM; in the assay on A2780 cells (SRB assay), 0.5 nM.
Consider `O=C(NCc1ccc(S(=O)(=O)c2cccc3c2Oc2ccccc2S3)cc1)c1cnc2[nH]ncc2c1` [N-{[4-(phenoxathiine-4-sulfonyl)phenyl]methyl}-1H-pyrazolo[3,4-b]pyridine-5-carboxamide], for which the half-maximal inhibitory concentration (IC50) on NAMPT (NAMPT enzymatic assay) worked out at 14.8 nM; with A2780 cells (SRB), 20.4 nM.
As to `O=C(NCc1ccc(S(=O)(=O)c2cccc3c2Oc2ccccc2S3)cc1)c1cc2cnccc2[nH]1` [N-{[4-(phenoxathiine-4-sulfonyl)phenyl]methyl}-1H-pyrrolo[3,2-c]pyridine-2-carboxamide], the figures for the IC50 on NAMPT (NAMPT enzymatic reaction) and in the assay on A2780 cells (SRB assay) were 5 nM and 0.9 nM, respectively.
With `O=C(NCc1ccc(S(=O)(=O)c2cccc3c2Oc2ccccc2S3)cc1)c1cc2ccncc2o1` [N-{[4-(phenoxathiine-4-sulfonyl)phenyl]methyl}furo[2,3-c]pyridine-2-carboxamide], the results for the IC50 on NAMPT (NAMPT enzymatic assay) and with A2780 cells (SRB) were 5.6 nM and 13.1 nM, respectively.
In the same order, the values of `O=C(NCc1ccc(S(=O)(=O)c2cccc3c2Oc2ccccc2S3)cc1)c1ccc2nccn2c1` [N-{[4-(phenoxathiine-4-sulfonyl)phenyl]methyl}imidazo[1,2-a]pyridine-6-carboxamide] are 2.15 nM and 2.18 nM.
In the same order, the values of `O=C(NCc1ccc(S(=O)(=O)c2cccc3c2Oc2ccccc2S3)cc1)c1cnc2nccn2c1` [N-{[4-(phenoxathiine-4-sulfonyl)phenyl]methyl}imidazo[1,2-a]pyrimidine-6-carboxamide] are 2.1 nM and 4.2 nM.
`O=C(NCc1ccc(S(=O)(=O)c2cccc3c2Oc2ccccc2S3)cc1)c1cc2ccncc2s1` [N-{[4-(phenoxathiine-4-sulfonyl)phenyl]methyl}thieno[2,3-c]pyridine-2-carboxamide]: the results for the IC50 at NAMPT (NAMPT enzymatic reaction) and in the assay on A2780 cells (SRB assay) were 4 nM and 1.7 nM, respectively.
On the same counts, the results for `O=C(NCc1ccc(S(=O)(=O)Cc2ccccc2)cc1)c1cc2cnccc2[nH]1` [N-{[4-(phenylmethane)sulfonylphenyl]methyl}-1H-pyrrolo[3,2-c]pyridine-2-carboxamide] are 29 nM and 302 nM.
`O=C(NCc1ccc(S(=O)(=O)N2CCCCC2)cc1)c1ccc2ncsc2c1` [N-{[4-(piperidine-1-sulfonyl)phenyl]methyl}-1,3-benzothiazole-6-carboxamide]: the figures for the IC50 on NAMPT (NAMPT enzymatic reaction) and in the assay on A2780 cells (SRB assay) were 9 nM and 10 nM, respectively.
Regarding `O=C(NCc1ccc(S(=O)(=O)N2CCCCC2)cc1)c1ccc2cnccc2n1` [N-{[4-(piperidine-1-sulfonyl)phenyl]methyl}-1,6-naphthyridine-2-carboxamide], the IC50 was 12 nM on NAMPT (NAMPT enzymatic reaction) and 10 nM in the assay with A2780 cells (SRB assay).
In the same order, the values of `O=C(NCc1ccc(S(=O)(=O)N2CCCCC2)cc1)c1ccc2nc[nH]c2c1` [N-{[4-(piperidine-1-sulfonyl)phenyl]methyl}-1H-1,3-benzodiazole-5-carboxamide] are 21 nM and 10 nM.
In the same order, the values of `O=C(NCc1ccc(S(=O)(=O)N2CCCCC2)cc1)c1cn2[nH]ccc2n1` [N-{[4-(piperidine-1-sulfonyl)phenyl]methyl}-1H-imidazo[1,2-b]pyrazole-5-carboxamide] are 0.8 nM and 11 nM.
In the same order, the values of `O=C(NCc1ccc(S(=O)(=O)N2CCCCC2)cc1)c1ccc2[nH]ncc2c1` [N-{[4-(piperidine-1-sulfonyl)phenyl]methyl}-1H-indazole-5-carboxamide] are 18 nM and 16 nM.
`O=C(NCc1ccc(S(=O)(=O)N2CCCCC2)cc1)c1cnc2[nH]ncc2c1` [N-{[4-(piperidine-1-sulfonyl)phenyl]methyl}-1H-pyrazolo[3,4-b]pyridine-5-carboxamide]: the IC50 on NAMPT (NAMPT enzymatic reaction) was 17 nM; with A2780 cells (SRB assay), 33 nM.
As to `O=C(NCc1ccc(S(=O)(=O)N2CCCCC2)cc1)c1cc2ccncc2[nH]1` [N-{[4-(piperidine-1-sulfonyl)phenyl]methyl}-1H-pyrrolo[2,3-c]pyridine-2-carboxamide], the results for the IC50 on NAMPT (NAMPT enzymatic reaction) and in the assay on A2780 cells (SRB assay) were 4 nM and 54 nM, respectively.
In the same order, the values of `O=C(NCc1ccc(S(=O)(=O)N2CCCCC2)cc1)c1ccn2nnnc2c1` [N-{[4-(piperidine-1-sulfonyl)phenyl]methyl}-[1,2,3,4]tetrazolo[1,5-a]pyridine-7-carboxamide] are 3 nM and 9 nM.
In the same order, the values of `O=C(NCc1ccc(S(=O)(=O)N2CCCCC2)cc1)c1cc2cnccc2o1` [N-{[4-(piperidine-1-sulfonyl)phenyl]methyl}furo[3,2-c]pyridine-2-carboxamide] are 17 nM and 286 nM.
On the same counts, the results for `O=C(NCc1ccc(S(=O)(=O)N2CCCCC2)cc1)c1ccc2nccn2c1` [N-{[4-(piperidine-1-sulfonyl)phenyl]methyl}imidazo[1,2-a]pyridine-6-carboxamide] are 18 nM and 1160 nM.
For the compound `O=C(NCc1ccc(S(=O)(=O)N2CCCCC2)cc1)c1ccn2ccnc2c1` [N-{[4-(piperidine-1-sulfonyl)phenyl]methyl}imidazo[1,2-a]pyridine-7-carboxamide], the IC50 at NAMPT (NAMPT enzymatic reaction) was more than 100 nM; in the assay on A2780 cells (SRB assay), more than 500 nM.
In the same order, the values of `O=C(NCc1ccc(S(=O)(=O)N2CCCCC2)cc1)c1cccnc1` [N-{[4-(piperidine-1-sulfonyl)phenyl]methyl}pyridine-3-carboxamide] are 39 nM and 640 nM.
Regarding `O=C(NCc1ccc(S(=O)(=O)N2CCCCC2)cc1)c1cc2cccnc2s1` [N-{[4-(piperidine-1-sulfonyl)phenyl]methyl}thieno[2,3-b]pyridine-2-carboxamide], the IC50 at NAMPT (NAMPT enzymatic reaction) came to 6150 nM; in the assay on A2780 cells (SRB assay), 14000 nM.
As to `O=C(NCc1ccc(S(=O)(=O)N2CCCCC2)cc1)c1cc2cnccc2s1` [N-{[4-(piperidine-1-sulfonyl)phenyl]methyl}thieno[3,2-c]pyridine-2-carboxamide], the half-inhibitory concentration (IC50) on NAMPT (NAMPT enzymatic reaction) came out at 886 nM; with A2780 cells (SRB assay) it was 10000 nM.
As for `O=C(NCc1ccc(S(=O)(=O)c2ccccn2)cc1)c1cc2ccncc2o1` [N-{[4-(pyridine-2-sulfonyl)phenyl]methyl}furo[2,3-c]pyridine-2-carboxamide], the results for the IC50 at NAMPT (NAMPT enzymatic assay) and with A2780 cells (SRB) were 55.1 nM and 87 nM, respectively.
For the compound `O=C(NCc1ccc(S(=O)(=O)c2cccnc2)cc1)c1cc2ccncc2o1` [N-{[4-(pyridine-3-sulfonyl)phenyl]methyl}furo[2,3-c]pyridine-2-carboxamide], the IC50 on NAMPT (NAMPT enzymatic assay) came to 9 nM; in the assay with A2780 cells (SRB), 66.4 nM.
In the same order, the values of `O=C(NCc1ccc(S(=O)(=O)c2cccnc2)cc1)c1cnc2nccn2c1` [N-{[4-(pyridine-3-sulfonyl)phenyl]methyl}imidazo[1,2-a]pyrimidine-6-carboxamide] are 5.9 nM and 100 to 1000 nM.
In the same order, the values of `O=C(NCc1ccc(S(=O)(=O)c2cnc3ccccc3c2)cc1)c1cnc2[nH]ncc2c1` [N-{[4-(quinoline-3-sulfonyl)phenyl]methyl}-1H-pyrazolo[3,4-b]pyridine-5-carboxamide] are 5.2 nM and 4.4 nM.
On the same counts, the results for `O=C(NCc1ccc(S(=O)(=O)c2cnc3ccccc3c2)cc1)c1cc2cnccc2[nH]1` [N-{[4-(quinoline-3-sulfonyl)phenyl]methyl}-1H-pyrrolo[3,2-c]pyridine-2-carboxamide] are 16.3 nM and 2.9 nM.
In the case of `O=C(NCc1ccc(S(=O)(=O)c2cnc3ccccc3c2)cc1)c1ccc2nccn2c1` [N-{[4-(quinoline-3-sulfonyl)phenyl]methyl}imidazo[1,2-a]pyridine-6-carboxamide], the figures for the IC50 at NAMPT (NAMPT enzymatic assay) and in the assay on A2780 cells (SRB) were 14 nM and 1 nM, respectively.
In the same order, the values of `O=C(NCc1ccc(S(=O)(=O)c2cnc3ccccc3c2)cc1)c1cnc2nccn2c1` [N-{[4-(quinoline-3-sulfonyl)phenyl]methyl}imidazo[1,2-a]pyrimidine-6-carboxamide] are 2.5 nM and 3.6 nM.
Regarding `O=C(NCc1ccc(S(=O)(=O)c2cnc3ccccc3c2)cc1)c1cc2ccncc2s1` [N-{[4-(quinoline-3-sulfonyl)phenyl]methyl}thieno[2,3-c]pyridine-2-carboxamide], the IC50 at NAMPT (NAMPT enzymatic assay) was 4.4 nM; on NAMPT (NAMPT enzymatic reaction), 3 nM; in the assay with A2780 cells (SRB assay) it was 0.8 nM; in the assay with A2780 cells (SRB), 0.9 nM.
With `O=C(NCc1ccc(S(=O)(=O)c2ccc3ncccc3c2)cc1)c1cnc2[nH]ncc2c1` [N-{[4-(quinoline-6-sulfonyl)phenyl]methyl}-1H-pyrazolo[3,4-b]pyridine-5-carboxamide], the half-inhibitory concentration (IC50) on NAMPT (NAMPT enzymatic assay) is 10.1 nM; with A2780 cells (SRB), 4.1 nM.
On the same counts, the results for `O=C(NCc1ccc(S(=O)(=O)c2ccc3ncccc3c2)cc1)c1cc2ccncc2o1` [N-{[4-(quinoline-6-sulfonyl)phenyl]methyl}furo[2,3-c]pyridine-2-carboxamide] are 7.3 nM and 5 nM.
On the same counts, the results for `O=C(NCc1ccc(S(=O)(=O)c2ccc3ncccc3c2)cc1)c1ccc2nccn2c1` [N-{[4-(quinoline-6-sulfonyl)phenyl]methyl}imidazo[1,2-a]pyridine-6-carboxamide] are 5.16 nM and 0.83 nM.
